Assay results published in US11819572B2, “Treatment of pain by administration of sustained-release liposomal anesthetic compositions” (Pacira Pharmaceuticals, Inc., priority 2020, dated 2023).

Key:
in vivo = settings: beagle, dog, iv, 1.5 mg/kg
Method: Without wishing to be held to any particular mechanism or theory, it is believed that the observed toxicity differences above are attributable to the differences in plasma bupivacaine levels of the groups of dogs receiving free bupivacaine and EXPAREL®, respectively. […] Similarly, the Cmax for dogs receiving the same dose as in (i)—i.e., (1.5 mg/kg) of EXPAREL®—was clearly lower than that of dogs receiving free bupivacaine. […] The difference in exposure between the two groups may also be seen by comparing the respective values of Cmax/dose. […] In contrast with the above differences in Cmax in the two groups, the total AUC/dose was similar in dogs receiving EXPAREL® as compared to dogs receiving free bupivacaine. In particular, the values for female dogs were 751 (ng-hr/mL)/(mg/kg) for EXPAREL® (1.5 mg/kg dose), 674 (ng-hr/mL)/(mg/kg) for EXPAREL® (4.5 mg/kg dose), and 738 (ng-hr/mL)/(mg/kg)) for free bupivacaine. The values for male dogs were 1510 (ng-hr/mL)/(mg/kg) for EXPAREL® (1.5 mg/kg dose), 826 (ng-hr/mL)/(mg/kg) for EXPAREL® (4.5 mg/kg dose), and 879 (ng-hr/mL)/(mg/kg) for free bupivacaine.
(§1) The study was conducted in a manner analogous to the intravenous administration study described in a) above.

rats = assay: Intravenous administration to rats of bupivacaine and EXPAREL: tolerability; type: in vivo
Method: The following is a summary of the results from two pre-clinical studies that compared the tolerability and PK profiles for non-liposomal bupivacaine vs EXPAREL®
Improved toleration was attributed to the reduced peak plasma levels of bupivacaine observed in animals following administration of EXPAREL® vs non-liposomal bupivacaine. 1) Intravenous (IV) Administration to Rats of (a) Bupivacaine and (b) EXPAREL®:
Free bupivacaine was administered to three rats in an amount equivalent to 1.0, 1.75 and 2.5 mg/kg of bupivacaine. Two rats died, corresponding to a 67% mortality rate. In a separate experiment, EXPAREL® was administered to rats in an amount equivalent to 2.5, 5.0 and 7.5 mg/kg of bupivacaine. […] The NOELs (no observable effect levels) determined for EXPAREL® and for free bupivacaine in this study were 7.5 mg/kg and 1.0 mg/kg, respectively.

Beagle dogs = assay: Intravenous administration to Beagle dogs of bupivacaine and EXPAREL: adverse events and cardiology; type: in vivo, Beagle dog
Method: a) Intravenous (IV) Administration to Beagle Dogs of (a) Bupivacaine and (b) EXPAREL®:
Free bupivacaine was administered to dogs in an amount equivalent to 0.75 mg/kg and to 1.5 mg/kg of bupivacaine. Three dogs (one that was administered 0.75 mg/kg, and two that were administered 1.5 mg/kg) experienced side-effects such as convulsions, tremors, increased respiration and/or emesis (Table 1). In a separate experiment, EXPAREL® was administered to dogs in the same amount as above. […] A 3-fold higher dose of EXPAREL® (that is, a dose equivalent to 4.5 mg/kg of bupivacaine) was then administered to the dogs.

[1] = Bupivacaine plasma pharmacokinetics after intra-arterial (IA) administration in Beagle dogs; type: in vivo; settings: Beagle dog plasma bupivacaine, 0.1 mg/kg, Day 1, mean
Method: b) Intra-Arterial Administration to Beagle Dogs of (a) Bupivacaine and (b) EXPAREL®:
as §1

[2] = three rats, 1.0, 1.75 and 2.5 mg/kg of bupivacaine
[3] = Beagle dogs, dose 0.75, 1.5 mg/kg (Group 2)

Structure (SMILES): CCCCN1CCCCC1C(=O)Nc1c(C)cccc1C (stereo not drawn) [free bupivacaine, bupivacaine]
- AUC(0-t) (in vivo; female): 1110 ng·h/mL
- AUC(0 − t)/D (in vivo; female): 738 ng·h/mL/mg/kg
- Cmax (in vivo; female): 2050 ng/mL
- Cmax/D (in vivo; female): 1370 ng·kg/mL/mg
- Cmax/dose (in vivo; female): 1.37
- half-life (in vivo; female): 28.4 min
- total AUC/dose (in vivo; female): 738 (ng-hr/mL)/(mg/kg)
- AUC(0-t) (in vivo; male): 1320 ng·h/mL
- AUC(0 − t)/D (in vivo; male): 879 ng·h/mL/mg/kg
- Cmax (in vivo; male): 2750 ng/mL
- Cmax/D (in vivo; male): 1830 ng·kg/mL/mg
- Cmax/dose (in vivo; male): 1.83
- half-life (in vivo; male): 31.2 min
- total AUC/dose (in vivo; male): 879 (ng-hr/mL)/(mg/kg)
- NOEL (no observable effect level) (rats; rats): 1.0 mg/kg
- Mortality rate (rats; [2]): 67%
- Rats that died (rats; [2]): Two rats died
- Dogs that experienced side-effects such as convulsions, tremors, increased respiration and/or emesis (Beagle dogs; 0.75 mg/kg): one
- Dogs that experienced side-effects such as convulsions, tremors, increased respiration and/or emesis (Beagle dogs; 0.75 mg/kg and 1.5 mg/kg of bupivacaine (all)): Three dogs
- Dogs that experienced side-effects such as convulsions, tremors, increased respiration and/or emesis (Beagle dogs; 1.5 mg/kg): two
- Cardiology: Change in heart rate (BMP, avg) (Beagle dogs; [3]): 56 ± 31 BMP
- No. of animals exhibiting clinical symptoms: Increased respiration (Beagle dogs; [3]): 2
- No. of animals exhibiting clinical symptoms: Sustained convulsions (Beagle dogs; [3]): 1
- No. of animals exhibiting clinical symptoms: Tremors (Beagle dogs; [3]): 1
- No. of animals exhibiting clinical symptoms: Unsustained convulsions (Beagle dogs; [3]): 0
- No. of animals exhibiting clinical symptoms: Vomiting (Beagle dogs; [3]): 2
- AUC(0-t) ([1]; Female): 62.6 ng·h/mL
- AUC(0 − t)/D ([1]; Female): 626 ng·h/mL/mg/kg
- Cmax ([1]; Female): 187 ng/mL
- Cmax/D ([1]; Female): 1870 ng·kg/mL/mg
- half-life ([1]; Female): 16 min
- AUC(0-t) ([1]; Male): 71.1 ng·h/mL
- AUC(0 − t)/D ([1]; Male): 711 ng·h/mL/mg/kg
- Cmax ([1]; Male): 205 ng/mL
- Cmax/D ([1]; Male): 2050 ng·kg/mL/mg
- half-life ([1]; Male): 15.8 min
